Source: patent publication US20190309272A1, “Genetically Modified Cell Lines Including a TP53 Modification and Methods of Use” (UNIVERSITY OF SOUTH CAROLINA, priority 2018, published 2019)
Where a name gives a salt, the structure may show the parent alone. Read-outs that look alike come from different tables or passages of the source.

Tests used:
Assay type in all cases: cell-based, Human
MCF7 TP53 KO 3.4 pool = assay: Drug screening, resazurin, TP53 KO 3.4 pool
MCF7 PR WT G2 = assay: Drug treatment of single cell clone PR WT G2; conditions: ten day drug treatment; further: unit not given here
MCF7 TP53 KO 56 A8 = assay: Drug treatment of single cell clone KO 56 A8; conditions: ten day drug treatment
MCF7 WT Parental pool = assay: Drug screening, resazurin, MCF7 wild type parental pool; conditions: for area under the curve (AUC): PR WT Pool, ten day drug treatment (Table 3)
MCF7 TP53 KO 56 E3 = assay: Drug treatment of single cell clone KO 56 E3; conditions: ten day drug treatment
MCF7 TP53 KO 5.6 pool = assay: Drug screening, resazurin, TP53 KO 5.6 pool
MCF7 TP53 KO 34 E1 = assay: Drug treatment of single cell clone KO 34 E1; conditions: ten day drug treatment
MCF7 PR WT A8 = assay: Drug treatment of single cell clone PR WT A8; conditions: ten day drug treatment; further: unit not given here
MCF7 TP53 KO 56 A7 = assay: Drug treatment of single cell clone KO 56 A7; conditions: ten day drug treatment; further: unit not given here
MCF7 PR WT B8 = assay: Drug treatment of single cell clone PR WT B8; conditions: ten day drug treatment; further: unit not given here
MCF7 TP53 KO 34 D4 = assay: Drug treatment of single cell clone KO 34 D4; conditions: ten day drug treatment; further: unit not given here
MCF7 TP53 KO 56 A5 = assay: Drug treatment of single cell clone KO 56 A5; conditions: ten day drug treatment
MCF7 TP53 KO 56 C5 = assay: Drug treatment of single cell clone KO 56 C5; conditions: ten day drug treatment
MCF7 TP53 KO 56 E1 = assay: Drug treatment of single cell clone KO 56 E1; conditions: ten day drug treatment; further: unit not given here
MCF7 TP53 KO 56 A4 = assay: Drug treatment of single cell clone KO 56 A4; conditions: ten day drug treatment
MCF7 TP53 KO 34 B5 = assay: Drug treatment of single cell clone KO 34 B5; conditions: ten day drug treatment; further: unit not given here
MCF7 PR WT C7 = assay: Drug treatment of single cell clone PR WT C7; conditions: ten day drug treatment; further: unit not given here
MCF7 TP53 KO 56 A6 = assay: Drug treatment of single cell clone KO 56 A6; conditions: ten day drug treatment
[1] = ten-day drug treatment, 156.25 nM to 10 μM, resazurin fluorescence

Compound | TP53 KO 3.4 pool (AUC) (MCF7 TP53 KO 3.4 pool; [1]) | MCF7 WT Parental pool (AUC) (MCF7 WT Parental pool; [1]) | TP53 KO 5.6 pool (AUC) (MCF7 TP53 KO 5.6 pool; [1]) | also measured
O=c1[nH]cc(F)c(=O)[nH]1 [Fluorouracil] | 3.782 | 6.548 | 4.286 | area under the curve (AUC) (MCF7 TP53 KO 3.4 pool; KO 34 Pool, ten day drug treatment (Table 3)): 1.721; area under the curve (AUC) (MCF7 PR WT G2): 2.265; area under the curve (AUC) (MCF7 TP53 KO 56 A8): 2.02; area under the curve (AUC) (MCF7 WT Parental pool): 2.156; area under the curve (AUC) (MCF7 TP53 KO 56 E3): 1.645; area under the curve (AUC) (MCF7 TP53 KO 5.6 pool; KO 56 Pool, ten day drug treatment (Table 3)): 1.745; area under the curve (AUC) (MCF7 TP53 KO 34 E1): 1.945; area under the curve (AUC) (MCF7 PR WT A8): 2.126; area under the curve (AUC) (MCF7 TP53 KO 56 A7): 1.81; area under the curve (AUC) (MCF7 PR WT B8): 1.886; area under the curve (AUC) (MCF7 TP53 KO 34 D4): 1.812; area under the curve (AUC) (MCF7 TP53 KO 56 A5): 1.46; area under the curve (AUC) (MCF7 TP53 KO 56 C5): 1.826; area under the curve (AUC) (MCF7 TP53 KO 56 E1): 1.697; area under the curve (AUC) (MCF7 TP53 KO 56 A4): 1.716; area under the curve (AUC) (MCF7 TP53 KO 34 B5): 1.618; area under the curve (AUC) (MCF7 PR WT C7): 2.105; area under the curve (AUC) (MCF7 TP53 KO 56 A6): 1.811
COc1ccc(C2=N[C@@H](c3ccc(Cl)cc3)[C@@H](c3ccc(Cl)cc3)N2C(=O)N2CCNC(=O)C2)c(OC(C)C)c1 [Nutlin3] |  | 3.686 |  | area under the curve (AUC) (MCF7 PR WT G2): 1.011; area under the curve (AUC) (MCF7 WT Parental pool): 1.16; area under the curve (AUC) (MCF7 PR WT A8): 0.9589; area under the curve (AUC) (MCF7 PR WT B8): 0.8828; area under the curve (AUC) (MCF7 PR WT C7): 1.042
O=C(CCBr)N1CCN(C(=O)CCBr)CC1 [Pipobroman] | 8.997 | 8.767 | 7.66 | 
c1cc(CN2CCCNCCNCCCNCC2)ccc1CN1CCCNCCNCCCNCC1 [Plerixafor] | 8.893 | 9 | 8.524 | 
Nc1cccc2c1C(=O)N(C1CCC(=O)NC1=O)C2=O (stereo not drawn) [Pomalidomide] | 9.902 | 10.08 | 10.13 | 
Cc1ccc(C(=O)Nc2ccc(CN3CCN(C)CC3)c(C(F)(F)F)c2)cc1C#Cc1cnc2cccnn12 [Ponatinib] |  |  |  | TP53 KO 3.4 pool (AUC) (MCF7 TP53 KO 3.4 pool): 2.944; MCF7 WT Parental pool (AUC) (MCF7 WT Parental pool): 3.312; TP53 KO 5.6 pool (AUC) (MCF7 TP53 KO 5.6 pool): 3.632
C#CCC(Cc1cnc2nc(N)nc(N)c2n1)c1ccc(C(=O)N[C@@H](CCC(=O)O)C(=O)O)cc1 (stereo partly drawn) [Pralatrexate] | 2.774 | 2.822 | 2.86 | 
CNNCc1ccc(C(=O)NC(C)C)cc1 [Procarbazine Hydrochloride] | 10.04 | 8.119 | 10.7 | 
O=C(c1ccc(OCCN2CCCCC2)cc1)c1c(-c2ccc(O)cc2)sc2cc(O)ccc12 [Raloxifene] | 6.017 | 5.361 | 6.562 | 
CNC(=O)c1cc(Oc2ccc(NC(=O)Nc3ccc(Cl)c(C(F)(F)F)c3)c(F)c2)ccn1 [Regorafenib] | 5.541 | 3.995 | 5.25 | 
C/C=C1\NC(=O)[C@H]2CSSCC/C=C/[C@H](CC(=O)N[C@H](C(C)C)C(=O)N2)OC(=O)[C@H](C(C)C)NC1=O [Romidepsin] |  |  |  | TP53 KO 3.4 pool (AUC) (MCF7 TP53 KO 3.4 pool): 0.6551; MCF7 WT Parental pool (AUC) (MCF7 WT Parental pool): 0.5862; TP53 KO 5.6 pool (AUC) (MCF7 TP53 KO 5.6 pool): 0.5264
CN1CCN(C(=O)c2ccc3cc(CCNc4ncnc5ccc(C#N)cc45)ccc3c2)CC1 [SenexinB] | 6.869 | 5.203 | 6.954 | 
CO[C@H]1C[C@@H]2CC[C@@H](C)[C@@](O)(O2)C(=O)C(=O)N2CCCC[C@H]2C(=O)O[C@H]([C@H](C)C[C@@H]2CC[C@@H](O)[C@H](OC)C2)CC(=O)[C@H](C)/C=C(\C)[C@@H](O)[C@@H](OC)C(=O)[C@H](C)C[C@H](C)/C=C/C=C/C=C/1C [Sirolimus] | 2.623 | 2.534 | 3.106 | 
CN(N=O)C(=O)N[C@@H](C=O)[C@@H](O)[C@H](O)[C@H](O)CO [Streptozocin] | 10.58 | 9.145 | 9.912 | 
CCN(CC)CCNC(=O)c1c(C)[nH]c(/C=C2\C(=O)Nc3ccc(F)cc32)c1C [Sunitinib] | 3.076 | 3.556 | 3.758 | 
CC/C(=C(\c1ccccc1)c1ccc(OCCN(C)C)cc1)c1ccccc1 [TamoxifenCitrate] | 5.949 | 7.863 | 7.798 | 
Cn1nnc2c(C(N)=O)ncn2c1=O [Temozolomide] | 9.565 | 9.187 | 10.06 | 
COc1cc([C@@H]2c3cc4c(cc3[C@@H](O[C@@H]3O[C@@H]5CO[C@@H](c6cccs6)O[C@H]5[C@H](O)[C@H]3O)[C@H]3COC(=O)[C@H]23)OCO4)cc(OC)c1O [Teniposide] | 0.9417 | 1.342 | 1.041 | 

Compound | TP53 KO 3.4 pool (AUC) (MCF7 TP53 KO 3.4 pool; [1]) | MCF7 WT Parental pool (AUC) (MCF7 WT Parental pool; [1]) | TP53 KO 5.6 pool (AUC) (MCF7 TP53 KO 5.6 pool; [1]) | also measured
O=C1CCC(N2C(=O)c3ccccc3C2=O)C(=O)N1 (stereo not drawn) [Thalidomide] | 9.18 | 7.13 | 10.21 | 
S=P(N1CC1)(N1CC1)N1CC1 [Thiotepa] |  |  |  | TP53 KO 3.4 pool (AUC) (MCF7 TP53 KO 3.4 pool): 5.443; MCF7 WT Parental pool (AUC) (MCF7 WT Parental pool): 3.965; TP53 KO 5.6 pool (AUC) (MCF7 TP53 KO 5.6 pool): 5.535
CC[C@@]1(O)C(=O)OCc2c1cc1n(c2=O)Cc2cc3c(CN(C)C)c(O)ccc3nc2-1 [Topotecan Hydrochloride] | 0.7814 | 0.7919 | 0.8044 | 
CC(=O)Nc1cccc(-n2c(=O)n(C3CC3)c(=O)c3c(Nc4ccc(I)cc4F)n(C)c(=O)c(C)c32)c1 [Trametinib] | 6.641 | 7.726 | 8.533 | 
CC1=C(/C=C/C(C)=C/C=C/C(C)=C/C(=O)O)C(C)(C)CCC1 [Tretinoin] | 7.809 | 7.394 | 7.997 | 
C1CN1c1nc(N2CC2)nc(N2CC2)n1 [Triethyleneme1amine] | 2.224 | 2.223 | 2.319 | 
Oc1ncc(N(CCCl)CCCl)c(O)n1 [UracilMustard] |  |  |  | TP53 KO 3.4 pool (AUC) (MCF7 TP53 KO 3.4 pool): 9.337; MCF7 WT Parental pool (AUC) (MCF7 WT Parental pool): 9.331; TP53 KO 5.6 pool (AUC) (MCF7 TP53 KO 5.6 pool): 9.516
CCCCC(=O)OCC(=O)[C@]1(O)Cc2c(O)c3c(c(O)c2[C@@H](O[C@H]2C[C@H](NC(=O)C(F)(F)F)[C@H](O)[C@H](C)O2)C1)C(=O)c1c(OC)cccc1C3=O [Valrubicin] | 1.25 | 1.194 | 1.05 | 
COc1cc2c(Nc3ccc(Br)cc3F)ncnc2cc1OCC1CCN(C)CC1 [Vandetanib] | 2.831 | 2.871 | 3.022 | 
CCCS(=O)(=O)Nc1ccc(F)c(C(=O)c2c[nH]c3ncc(-c4ccc(Cl)cc4)cc23)c1F [Vemurafenib] | 7.987 | 8.722 | 8.365 | 
CC[C@]1(O)C[C@@H]2CN(CCc3c([nH]c4ccccc34)[C@@](C(=O)OC)(c3cc4c(cc3OC)N(C)[C@H]3[C@@](O)(C(=O)OC)[C@H](OC(C)=O)[C@]5(CC)C=CCN6CC[C@]43[C@@H]65)C2)C1 [Vinblastine Sulfate] | 1.54 | 1.393 | 1.382 | 
CC[C@]1(O)C[C@H]2CN(CCc3c([nH]c4ccccc34)[C@@](C(=O)OC)(c3cc4c(cc3OC)N(C=O)[C@H]3[C@@](O)(C(=O)OC)[C@H](OC(C)=O)[C@]5(CC)C=CCN6CC[C@]43[C@@H]65)C2)C1 [Vincristine Sulfate] | 1.776 | 1.668 | 1.54 | 
CS(=O)(=O)c1ccc(C(=O)Nc2ccc(Cl)c(-c3ccccn3)c2)c(Cl)c1 [Vismodegib] | 8.017 | 8.801 | 8.363 | 
O=C(CCCCCCC(=O)Nc1ccccc1)NO [Vorinostat] | 2.202 | 2.073 | 2.114 | 
O=P(O)(O)C(O)(Cn1ccnc1)P(=O)(O)O [Zoledronic Acid] | 9.268 | 9.222 | 9.417 | 
Arsenic Trioxide | 5.242 | 5.018 | 5.373 | 
Bleomycin Sulfate | 4.694 | 3.922 | 3.421 | 
